From PMC12461339, “Benzoylselenoureas: A Novel Dual-Action Inhibitor Targeting Fungal Growth and Urease Activity in Cryptococcus neoformans” (ACS Omega, 2025) come the findings set out here.

Holding throughout (format): cell-based
The subject of assay [1] is C. neoformans H99. Put plainly: Broth microdilution antifungal assay (MIC) in RPMI or urea medium. The note with it: Cryptococcus neoformans. Here is the method:
(§1) C. neoformans H99 (or ATCC 208821), a standard strain, was used to evaluate the antifungal activity of BSU1-BSU11 and BTU1-BTU11 compounds using the broth microdilution method. The assay was performed in two different culture media: the standard medium RPMI 1640 buffered with […] (RMPI), and the Christensen broth (urea medium: 1 g/L peptone, 1 g/L dextrose, 5 g/L sodium chloride, 2 g/L potassium phosphate, 20 g/L urea, 12 mg/L phenol red, pH 7.0). The compounds were dissolved in dimethyl sulfoxide (DMSO) and diluted in both media, obtaining final concentrations from 0.03 to 128 mg/L in a 96-well plate and final DMSO concentration below 0.5%, considered nontoxic. For assay, yeasts were distributed in each well to obtain a final inoculum of 0.5–2.5 × 10^3 CFU/mL, and the plate was incubated at 35 °C for 48 h.
(§2) The MIC values were determined in both media and were defined as the lowest concentrations of BSU1-BSU11 and BTU1-BTU11 that inhibited 50% of fungal growth visually compared with untreated yeasts (growth control). In addition, the urease activity was indicated by medium color change from orange to pink due to ammonia production and the MICure was defined as the lowest concentration that inhibited the urease activity by visual inspection in urea medium with no color changes. For both assays, two controls were included: untreated yeast group for observation of fungal growth pattern or intracellular urease activity, and wells containing only medium for assay sterility control.

For assay [2], the target named is T1, yeast urease activity (Cryptococcus neoformans, UniProt O13465).
T1 construct: endogenous in cells; host or cells: Cryptococcus neoformans H99 (ATCC 208821) yeasts in Christensen urea broth
T1 sequence (O13465 whole entry): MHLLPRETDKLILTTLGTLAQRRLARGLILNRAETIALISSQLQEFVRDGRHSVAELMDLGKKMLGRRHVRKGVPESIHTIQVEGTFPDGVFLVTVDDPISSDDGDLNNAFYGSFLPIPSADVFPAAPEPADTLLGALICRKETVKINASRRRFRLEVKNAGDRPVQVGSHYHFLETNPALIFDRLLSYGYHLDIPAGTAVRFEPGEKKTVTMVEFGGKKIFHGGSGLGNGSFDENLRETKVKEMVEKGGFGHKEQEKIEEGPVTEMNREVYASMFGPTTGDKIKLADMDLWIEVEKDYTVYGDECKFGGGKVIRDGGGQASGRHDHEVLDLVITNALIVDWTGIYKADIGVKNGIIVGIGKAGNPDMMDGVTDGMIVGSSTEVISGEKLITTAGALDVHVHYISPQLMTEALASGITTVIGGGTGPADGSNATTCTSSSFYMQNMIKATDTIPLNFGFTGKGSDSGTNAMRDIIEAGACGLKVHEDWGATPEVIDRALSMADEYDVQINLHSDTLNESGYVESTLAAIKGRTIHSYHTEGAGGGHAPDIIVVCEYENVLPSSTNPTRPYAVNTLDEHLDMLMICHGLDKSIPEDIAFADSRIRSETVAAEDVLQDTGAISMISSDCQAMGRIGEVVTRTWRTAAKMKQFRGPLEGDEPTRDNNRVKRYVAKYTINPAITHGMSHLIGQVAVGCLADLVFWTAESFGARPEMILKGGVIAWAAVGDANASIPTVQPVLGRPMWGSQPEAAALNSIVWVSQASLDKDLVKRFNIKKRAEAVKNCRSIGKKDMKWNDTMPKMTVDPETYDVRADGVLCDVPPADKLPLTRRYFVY
Put plainly: Inhibition of yeast urease activity in urea (Christensen) medium, colour change (MICure). Here is the method:
The inhibitory activity against yeast urease was assessed using Christensen’s medium, which contains urea to induce URE1 gene expression. […] Even in the presence of fungal growth, inhibition of urease activity was evidenced by the absence of medium color change, indicating suppressed ammonia production.
as §1, §2

Assay [3] has as its system C. neoformans H99. Put plainly: Minimum fungicidal concentration by subculturing after MIC reading. The note with it: Cryptococcus neoformans, read-out: MFC. Here is the method:
After MIC readings, the MFC values were determined by subculturing, at 35 °C for 48 h, of all concentrations that inhibited the fungal growth; and then MFC was defined as the lowest concentration of the compound capable of reducing ≥99% viability of the initial fungal inoculum. ,

Where [4] appears, read: H99, BTU series, 50% inhibition of fungal growth, RPMI medium, read-out: MIC RPMI.
Setting [5] is: H99, BTU series, 50% inhibition of fungal growth, urea medium, read-out: MIC urea.
[6] abbreviates: H99, Table S1, RPMI medium, C. neoformans H99, read-out: MIC.
Setting [7] is: H99, Table S1, urea medium, C. neoformans H99, read-out: MIC.
Where [8] appears, read: BTU series, 100% inhibition of yeast urease activity in urea medium.
Where [9] appears, read: Table S1, urea medium, 100% inhibition of yeast urease activity.
The mark [10] stands for this setting: H99, BTU series, after assay in RPMI medium.
The mark [11] stands for this setting: H99, Table S1, RPMI medium line.
Where [12] appears, read: H99, Table S1, urea medium line.

≈ marks a conversion by molar mass, not a printed value. Read-outs that look alike come from different tables or passages of the source. A value given as a limit tells only on which side of the number the result lay.

What is called MIC is the least concentration at which growth counts as inhibited. As usually defined, the MFC is the lowest tested concentration that kills the fungus rather than only halting it. Consider `O=C(NC(=S)Nc1ccccc1)c1ccccc1` [BTU1], for which the MIC in assay [1] (setting [4]) was over 128 µg/mL; in assay [1] (setting [5]), 32 µg/mL (≈ 125 µM); in assay [1] (setting [6]), over 128 µg/mL; in assay [1] (setting [7]) it was 32 µg/mL (≈ 125 µM). Also, the MICURE in assay [2] (setting [8]) and in assay [2] (setting [9]) was 32 mg/L throughout. Also, the MFC in assay [3] (setting [10]) was over 128 µg/mL; in assay [3] (setting [11]) it was over 128 µg/mL; in assay [3] (setting [12]) it was 128 µg/mL (≈ 499 µM).

Regarding `Cc1ccc(NC(=S)NC(=O)c2ccccc2)cc1` [BTU2], the MIC was over 128 µg/mL in assay [1] (setting [4]), 32 µg/mL (≈ 118 µM) in assay [1] (setting [5]), over 128 µg/mL in assay [1] (setting [6]) and 32 µg/mL (≈ 118 µM) in assay [1] (setting [7]). Further, the MICURE in assay [2] (setting [8]) is listed as under 0.25 mg/L; in assay [2] (setting [9]), at most 0.25 mg/L. In addition, the MFC in assay [3] (setting [10]), in assay [3] (setting [11]) and in assay [3] (setting [12]) was over 128 µg/mL in each case.

For `CC(C)(C)c1ccc(NC(=S)NC(=O)c2ccccc2)cc1` [BTU3], the MIC in assay [1] (setting [4]) came to 8 µg/mL (≈ 25.6 µM); in assay [1] (setting [5]), 1 µg/mL (≈ 3.2 µM); in assay [1] (setting [6]), 8 µg/mL (≈ 25.6 µM); in assay [1] (setting [7]) it was 1 µg/mL (≈ 3.2 µM). Also, the MICURE in assay [2] (setting [8]) and in assay [2] (setting [9]) was 0.5 mg/L throughout. Also, the figures for the minimal fungicidal concentration (MFC) in assay [3] (setting [10]), in assay [3] (setting [11]) and in assay [3] (setting [12]) were over 128 µg/mL, over 128 µg/mL and 128 µg/mL (≈ 410 µM), respectively.

Take `COc1ccccc1NC(=S)NC(=O)c1ccccc1` [BTU4]: the MIC is over 128 µg/mL in assay [1] (setting [4]), 64 µg/mL (≈ 223 µM) in assay [1] (setting [5]), over 128 µg/mL in assay [1] (setting [6]) and 1 µg/mL (≈ 3.49 µM) in assay [1] (setting [7]). In addition, the MICURE in assay [2] (setting [8]) is reported as 32 mg/L; in assay [2] (setting [9]), at most 0.25 mg/L. In addition, the MFC in assay [3] (setting [10]), in assay [3] (setting [11]) and in assay [3] (setting [12]) was over 128 µg/mL throughout.

`COc1cccc(NC(=S)NC(=O)c2ccccc2)c1` [BTU5]: the MIC in assay [1] (setting [4]) is 32 µg/mL (≈ 112 µM); in assay [1] (setting [5]), 4 µg/mL (≈ 14 µM); in assay [1] (setting [6]), over 128 µg/mL; in assay [1] (setting [7]), 4 µg/mL (≈ 14 µM). In addition, the MICURE in assay [2] (setting [8]) is reported as 4 mg/L; in assay [2] (setting [9]) it was at most 0.25 mg/L. Moreover, the MFC in assay [3] (setting [10]), in assay [3] (setting [11]) and in assay [3] (setting [12]) was over 128 µg/mL in each case.

Take `O=C(NC(=S)Nc1ccc(Cl)cc1)c1ccccc1` [BTU6]: the MIC is over 128 µg/mL in assay [1] (setting [4]), 1 µg/mL (≈ 3.44 µM) in assay [1] (setting [5]), over 128 µg/mL in assay [1] (setting [6]) and 32 µg/mL (≈ 110 µM) in assay [1] (setting [7]). In addition, the values for the MICURE in assay [2] (setting [8]) and in assay [2] (setting [9]) were under 0.25 mg/L and at most 0.25 mg/L, respectively. Also, the MFC in assay [3] (setting [10]) was over 128 µg/mL; in assay [3] (setting [11]) it was over 128 µg/mL; in assay [3] (setting [12]) it was 128 µg/mL (≈ 440 µM).

In the case of `O=C(NC(=S)Nc1cccc(Cl)c1)c1ccccc1` [BTU7], the MIC was over 128 µg/mL in assay [1] (setting [4]), 4 µg/mL (≈ 13.8 µM) in assay [1] (setting [5]), over 128 µg/mL in assay [1] (setting [6]) and 32 µg/mL (≈ 110 µM) in assay [1] (setting [7]). The MICURE in assay [2] (setting [8]) is given as under 0.25 mg/L; in assay [2] (setting [9]), 2 mg/L. Also, the MFC in assay [3] (setting [10]) is over 128 µg/mL; in assay [3] (setting [11]) it was over 128 µg/mL; in assay [3] (setting [12]), 64 µg/mL (≈ 220 µM).

Regarding `O=C(NC(=S)Nc1ccc(Br)cc1)c1ccccc1` [BTU8], the MIC in assay [1] (setting [4]) is over 128 µg/mL; in assay [1] (setting [5]) it was 32 µg/mL (≈ 95.5 µM); in assay [1] (setting [6]), over 128 µg/mL; in assay [1] (setting [7]) it was 64 µg/mL (≈ 191 µM). Also, the results for the MICURE in assay [2] (setting [8]) and in assay [2] (setting [9]) were under 0.25 mg/L and 32 mg/L, respectively. The MFC in assay [3] (setting [10]), in assay [3] (setting [11]) and in assay [3] (setting [12]) was over 128 µg/mL each time.

Consider `O=C(NC(=S)Nc1cccc(Br)c1)c1ccccc1` [BTU9], for which the MIC was over 128 µg/mL in assay [1] (setting [4]), 32 µg/mL (≈ 95.5 µM) in assay [1] (setting [5]), 32 µg/mL (≈ 95.5 µM) in assay [1] (setting [6]) and 4 µg/mL (≈ 11.9 µM) in assay [1] (setting [7]). The figures for the MICURE in assay [2] (setting [8]) and in assay [2] (setting [9]) were 2 mg/L and 4 mg/L, respectively. Besides, the MFC in assay [3] (setting [10]) was over 128 µg/mL; in assay [3] (setting [11]), over 128 µg/mL; in assay [3] (setting [12]) it was 32 µg/mL (≈ 95.5 µM).
